Patent publication US20020035061A1, “COMPOSITIONS AND METHODS FOR TREATING INFECTIONS USING CATIONIC PEPTIDES ALONE OR IN COMBINATION WITH ANTIBIOTICS” (priority 1996, published 2002)

Tested on: bacterial isolates
Test: microbe, parasite or virus in culture
Format: cell-based
Settings: for MBI 26 + Teicoplanin: in combination with Teicoplanin

KWKSFIKKLTSAAKKVVTTAKPLISS [MBI 26]
Vancomycin MIC + Peptide (E. faecalis EFS012): 2 µg/mL | Peptide MIC + Vancomycin (E. faecalis EFS013): 1 µg/mL | Peptide MIC Alone (E. faecalis EFS013): 16 µg/mL | Vancomycin MIC + Peptide (E. faecalis EFS013): 2 µg/mL | MBI 26 Alone (E. faecium 97001 VanB): 64 µg/mL | MBI 26 + Teicoplanin (E. faecium 97001 VanB): 4 µg/mL | MBI 26 Alone (E. faecium 97002 VanB): 64 µg/mL | MBI 26 + Teicoplanin (E. faecium 97002 VanB): 1 µg/mL | MBI 26 Alone (E. faecium 97003 VanB): 64 µg/mL | MBI 26 + Teicoplanin (E. faecium 97003 VanB): 1 µg/mL | MBI 26 Alone (E. faecium 97005 VanB): 64 µg/mL | MBI 26 + Teicoplanin (E. faecium 97005 VanB): 2 µg/mL | MBI 26 Alone (E. faecium 97006 VanB): 64 µg/mL | MBI 26 + Teicoplanin (E. faecium 97006 VanB): 4 µg/mL | MBI 26 Alone (E. faecium 97007 VanB): 64 µg/mL | MBI 26 + Teicoplanin (E. faecium 97007 VanB): 1 µg/mL | MBI 26 Alone (E. faecium 97008 VanB): 64 µg/mL | MBI 26 + Teicoplanin (E. faecium 97008 VanB): 4 µg/mL | MBI 26 Alone (E. faecium 97009 VanB): 32 µg/mL | MBI 26 + Teicoplanin (E. faecium 97009 VanB): 1 µg/mL | MBI 26 Alone (E. faecium 97010 VanB): 64 µg/mL | MBI 26 + Teicoplanin (E. faecium 97010 VanB): 4 µg/mL | MBI 26 Alone (E. faecium 97011 VanB): 64 µg/mL | MBI 26 + Teicoplanin (E. faecium 97011 VanB): 4 µg/mL | MBI 26 Alone (E. faecium 97012 VanB): 64 µg/mL | MBI 26 + Teicoplanin (E. faecium 97012 VanB): 4 µg/mL | MBI 26 Alone (E. faecium 97013 VanB): 64 µg/mL | MBI 26 + Teicoplanin (E. faecium 97013 VanB): 8 µg/mL | MBI 26 Alone (E. faecium 97014 VanB): 64 µg/mL | MBI 26 + Teicoplanin (E. faecium 97014 VanB): 4 µg/mL | MBI 26 Alone (E. faecium 97015 VanB): 64 µg/mL | MBI 26 + Teicoplanin (E. faecium 97015 VanB): 4 µg/mL | MBI 26 Alone (E. faecium 97016 VanB): 64 µg/mL | MBI 26 + Teicoplanin (E. faecium 97016 VanB): 4 µg/mL | Peptide MIC + Vancomycin (E. faecium EFM010): 8 µg/mL | Peptide MIC Alone (E. faecium EFM010): 32 µg/mL | Vancomycin MIC + Peptide (E. faecium EFM010): 2 µg/mL | Peptide MIC + Vancomycin (E. faecium EFM011): 8 µg/mL | Peptide MIC Alone (E. faecium EFM011): 32 µg/mL | Vancomycin MIC + Peptide (E. faecium EFM011): 2 µg/mL | Peptide MIC + Vancomycin (E. faecium EFM012): 16 µg/mL | Peptide MIC Alone (E. faecium EFM012): 64 µg/mL | Vancomycin MIC + Peptide (E. faecium EFM012): 2 µg/mL | Peptide MIC + Vancomycin (E. faecium EFM014): 8 µg/mL | Peptide MIC Alone (E. faecium EFM014): 32 µg/mL | Vancomycin MIC + Peptide (E. faecium EFM014): 4 µg/mL | Peptide MIC + Vancomycin (E. faecium EFM016): 4 µg/mL | Peptide MIC Alone (E. faecium EFM016): 8 µg/mL | Vancomycin MIC + Peptide (E. faecium EFM016): 1 µg/mL | Peptide MIC + Piperacillin (H. influenzae 1): 8 µg/mL | Piperacillin MIC + Peptide (H. influenzae 1): 32 µg/mL | Peptide MIC Alone (H. influenzae 1, Piperacillin section): >128 µg/mL | Peptide MIC + Piperacillin (H. influenzae 2): 2 µg/mL | Piperacillin MIC + Peptide (H. influenzae 2): 64 µg/mL | Peptide MIC Alone (H. influenzae 2, Piperacillin section): >128 µg/mL | Ceftriaxone MIC + Peptide (K. pneumoniae KP003): 4 µg/mL | Peptide MIC + Ceftriaxone (K. pneumoniae KP003): 1 µg/mL | Peptide MIC + Piperacillin (P. aeruginosa 7): 32 µg/mL | Piperacillin MIC + Peptide (P. aeruginosa 7): 32 µg/mL | Peptide MIC Alone (P. aeruginosa 7, Piperacillin section): >128 µg/mL | Ciprofloxacin MIC + Peptide (P. aeruginosa 23): 0.5 µg/mL | Peptide MIC + Ciprofloxacin (P. aeruginosa 23): 2 µg/mL | Peptide MIC + Piperacillin (P. aeruginosa 23): 32 µg/mL | Piperacillin MIC + Peptide (P. aeruginosa 23): 4 µg/mL | Peptide MIC Alone (P. aeruginosa 23, Piperacillin section): >64 µg/mL | Ciprofloxacin MIC + Peptide (P. aeruginosa 24): 0.5 µg/mL | Peptide MIC + Ciprofloxacin (P. aeruginosa 24): 2 µg/mL | Peptide MIC + Piperacillin (P. aeruginosa 28): 32 µg/mL | Piperacillin MIC + Peptide (P. aeruginosa 28): 16 µg/mL | Peptide MIC Alone (P. aeruginosa 28, Piperacillin section): >128 µg/mL | Peptide MIC + Piperacillin (P. aeruginosa 41): 4 µg/mL | Piperacillin MIC + Peptide (P. aeruginosa 41): 32 µg/mL | Peptide MIC Alone (P. aeruginosa 41, Piperacillin section): 128 µg/mL | Mupirocin MIC + Peptide (P. aeruginosa PA2): 10 µg/mL | Peptide MIC + Mupirocin (P. aeruginosa PA2): 64 µg/mL | Peptide MIC Alone (P. aeruginosa PA2, Mupirocin section): 128 µg/mL | Mupirocin MIC + Peptide (P. aeruginosa PA4): 100 µg/mL | Peptide MIC + Mupirocin (P. aeruginosa PA4): 32 µg/mL | Peptide MIC Alone (P. aeruginosa PA4, Mupirocin section): >128 µg/mL | Ceftriaxone MIC + Peptide (P. aeruginosa PA008): 8 µg/mL | Peptide MIC + Ceftriaxone (P. aeruginosa PA008): 0.125 µg/mL | Ceftriaxone MIC + Peptide (P. aeruginosa PA024): 4 µg/mL | Peptide MIC + Ceftriaxone (P. aeruginosa PA024): 32 µg/mL | Gentamicin MIC + Peptide (P. aeruginosa PA041): 1 µg/mL | Peptide MIC + Gentamicin (P. aeruginosa PA041): 32 µg/mL | Ciprofloxacin MIC + Peptide (P. aeruginosa PA41): 1 µg/mL | Peptide MIC + Ciprofloxacin (P. aeruginosa PA41): 32 µg/mL | Ciprofloxacin MIC + Peptide (P. aeruginosa PA77): 0.125 µg/mL | Peptide MIC + Ciprofloxacin (P. aeruginosa PA77): 64 µg/mL | Peptide MIC + Piperacillin (S. aureus 19 MRSA): 1 µg/mL | Piperacillin MIC + Peptide (S. aureus 19 MRSA): 16 µg/mL | Peptide MIC Alone (S. aureus 19 MRSA, Piperacillin section): 32 µg/mL | Ciprofloxacin MIC + Peptide (S. aureus SA11): 32 µg/mL | Peptide MIC + Ciprofloxacin (S. aureus SA11): 0.125 µg/mL | Ceftriaxone MIC + Peptide (S. aureus SA025 MRSA): 0.125 µg/mL | Peptide MIC + Ceftriaxone (S. aureus SA025 MRSA): 0.5 µg/mL | FIC (S. aureus SA044, combination with Ciprofloxacin): 0.63 | FIC (S. aureus SA7609, combination with Clindamycin): 0.25 | FIC (S. aureus SA7609, combination with Methicillin): 0.56 | FIC (S. aureus SA7610, combination with Clindamycin): 0.63 | FIC (S. aureus SA7610, combination with Methicillin): 0.31 | FIC (S. aureus SA7795, combination with Ampicillin): 0.52 | FIC (S. aureus SA7795, combination with Clindamycin): 0.53 | FIC (S. aureus SA7796, combination with Ampicillin): 1.00 | FIC (S. aureus SA7796, combination with Clindamycin): 0.51 | FIC (S. aureus SA7817, combination with Ampicillin): 0.50 | FIC (S. aureus SA7818, combination with Ampicillin): 1.00 | FIC (S. aureus SA7818, combination with Erythromycin): 0.15 | FIC (S. aureus SA7821, combination with Erythromycin): 0.50 | FIC (S. aureus SA7822, combination with Ampicillin): 0.25 | FIC (S. aureus SA7823, combination with Ampicillin): 0.25 | FIC (S. aureus SA7824, combination with Ampicillin): 1.00 | FIC (S. aureus SA7825, combination with Ampicillin): 1.00 | FIC (S. aureus SA7825, combination with Erythromycin): 1.00 | FIC (S. aureus SA7834, combination with Ampicillin): 0.53 | FIC (S. aureus SA7834, combination with Clindamycin): 0.56 | FIC (S. aureus SA7835, combination with Ampicillin): 0.53 | FIC (S. aureus SA7836, combination with Ampicillin): 0.75 | FIC (S. aureus SA7837, combination with Ampicillin): 1.00 | FIC (S. aureus SAATCC25293, combination with Methicillin): 0.50 | FIC (S. aureus SAATCC29213, combination with Methicillin): 0.31 | FIC (S. aureus SAW1133, combination with Methicillin): 0.75 | Peptide MIC + Piperacillin (S. aureus SB3MRSA): 16 µg/mL
